Legend:
HP-LTLC cells = test: MTT combination of VN/14-1 with thapsigargin, Chou-Talalay analysis; assay type: cell-based, human; conditions: in combination VN/14-1 + thapsigargin
[1] = ref Saadeddin et al., 2004; cited from earlier work

Structure (SMILES)	DRI (dose reduction index) (HP-LTLC cells; 50% inhibition)	DRI (dose reduction index) (HP-LTLC cells; 75% inhibition)	DRI (dose reduction index) (HP-LTLC cells; 95% inhibition)	Oral bioavailability (F) [1]
C/C=C(/C)C(=O)O[C@H]1C(C)=C2[C@H]([C@@H]1OC(=O)CCCCCCC)[C@@](C)(OC(C)=O)C[C@H](OC(=O)CCC)[C@@]1(O)[C@H]2OC(=O)[C@@]1(C)O [thapsigargin]	11.498	31.584	172.494	–
CC1=C(/C=C/C(C)=C/C=C/C(C)=C/C(=O)O)C(C)(C)CCC1 [ATRA]	–	–	–	~ 40%
